Assay results taken from ChEMBL document CHEMBL3880421, “Indazole compounds and pharmaceutical compositions for inhibiting protein kinases, and methods for their use” (2003).

Tests used:
[1] = Terminal half life in B6 mouse at 50 mg/kg, po by UV-HPLC analysis; type: ADME, organism-based; details: B6, mouse, in vivo, read-out: beta t1/2 (converted)
[2] = Terminal half life in B6 mouse at 25 mg/kg, ip by UV-HPLC analysis; type: ADME, organism-based; details: in vivo, read-out: beta t1/2 (converted)
[3] = biological target: T1, Serine/threonine-protein kinase Chk1 (Homo sapiens) (UniProt O14757); assay: Inhibition of full length human C-terminal 6His-tagged CHK1 expressed in baculovirus/insect expression system assessed as reduction in NADH oxidation at 50 uM using Syntide2 as substrate by pyruvate kinase/lactate dehydrogenase coupled assay
T1 sequence (whole entry): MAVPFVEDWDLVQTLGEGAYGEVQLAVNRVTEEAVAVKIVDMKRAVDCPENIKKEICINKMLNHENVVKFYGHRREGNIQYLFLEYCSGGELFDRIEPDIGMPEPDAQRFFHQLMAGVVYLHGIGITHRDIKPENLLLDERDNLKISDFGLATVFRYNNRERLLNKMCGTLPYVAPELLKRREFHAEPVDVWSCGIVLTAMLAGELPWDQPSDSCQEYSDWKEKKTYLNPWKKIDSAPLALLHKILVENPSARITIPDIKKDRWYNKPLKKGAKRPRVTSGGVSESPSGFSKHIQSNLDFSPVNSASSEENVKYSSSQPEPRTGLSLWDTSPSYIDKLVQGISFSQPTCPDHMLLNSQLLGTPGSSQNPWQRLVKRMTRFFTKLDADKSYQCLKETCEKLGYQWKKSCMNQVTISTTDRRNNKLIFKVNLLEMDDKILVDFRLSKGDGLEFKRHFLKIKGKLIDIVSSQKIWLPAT

[4] = biological target: Cyclin-dependent kinase 1 (Homo sapiens) (UniProt P06493); assay: Inhibition of CDK1 (unknown origin) at 1 uM
[5] = test system: Rattus norvegicus; assay: Antivascular activity in rat model of retinopathy assessed as vessel regression in retina at 5 mg/ml, administered intravitreally on postnatal day 8 measured after 6 days by ADPase-staining based histochemical analysis; type: functional
[6] = test system: Vascular endothelial growth factor receptor 2 (Homo sapiens), P35968 [E990V]; details: at 50 nM
[7] = Terminal half life in B6 mouse at 25 mg/kg, po by UV-HPLC analysis; type: ADME, organism-based; details: in vivo; for half-life: B6, mouse, read-out: beta t1/2 (converted)
[8] = test system: Mus musculus; assay: (§1) Cmax in B6 mouse at 25 mg/kg, po by UV-HPLC analysis; type: ADME, organism-based; design: dose 25 mg/kg, route oral; details: mouse, in vivo, BLD = below limit of detection
[9] = test system: Rattus norvegicus; assay: Antivascular activity in rat model of retinopathy assessed as vessel regression in retina at 5 mg/ml, administered intravitreally measured after 6 days by ADPase-staining based histochemical analysis; type: functional
[10] = as §1; type: ADME, organism-based; design: dose 25 mg/kg, route oral; details: B6, mouse, in vivo
[11] = biological target: T1, Serine/threonine-protein kinase Chk1 (Homo sapiens); assay: Inhibition of full length human C-terminal 6His-tagged CHK1 expressed in baculovirus/insect expression system assessed as reduction in NADH oxidation at 20 uM using Syntide2 as substrate by pyruvate kinase/lactate dehydrogenase coupled assay
[12] = Terminal half life in B6 mouse at 10 mg/kg, po by UV-HPLC analysis; type: ADME, organism-based; details: in vivo, read-out: beta t1/2 (converted)
[13] = Terminal half life in B6 mouse at 8 mg/kg, po by UV-HPLC analysis; type: ADME, organism-based; details: in vivo, read-out: beta t1/2 (converted)
[14] = Terminal half life in B6 mouse at 40 mg/kg, po by UV-HPLC analysis; type: ADME, organism-based; details: in vivo, read-out: beta t1/2 (converted)
[15] = AUClast in B6 mouse at 10 mg/kg, po by UV-HPLC analysis; type: ADME, organism-based; design: dose 10 mg/kg, route oral, time 0 - last; details: in vivo
[16] = Cmax in B6 mouse at 10 mg/kg, po by UV-HPLC analysis; type: ADME, organism-based; design: dose 10 mg/kg, route oral; details: in vivo
[17] = Cmin in B6 mouse at 8 mg/kg, po measured after 7 hrs by UV-HPLC analysis; type: ADME, organism-based; details: in vivo, read-out: Cmin
[18] = Cmin in B6 mouse at 40 mg/kg, po measured after 7 hrs by UV-HPLC analysis; type: ADME, organism-based; details: in vivo, read-out: Cmin
[19] = Cmax in B6 mouse at 50 mg/kg, po by UV-HPLC analysis; type: ADME, organism-based; design: dose 50 mg/kg, route oral; details: in vivo
[20] = AUClast in B6 mouse at 50 mg/kg, po by UV-HPLC analysis; type: ADME, organism-based; design: dose 50 mg/kg, route oral, time 0 - last; details: in vivo
[21] = test system: Focal adhesion kinase 1 (Homo sapiens), Q05397 [P410T]; assay: Inhibition of human FAK P410T mutant expressed in baculovirus expression system at 10 uM using poly Glu-Tyr (4:1) as substrate by fluorescence polarization method
[22] = Terminal half life in B6 mouse at 25 mg/kg, po administered in 0.5% CMC by UV-HPLC analysis; type: ADME, organism-based; details: in vivo, read-out: beta t1/2 (converted)
[23] = Cmin in B6 mouse at 200 mg/kg, po measured after 7 hrs by UV-HPLC analysis; type: ADME, organism-based; details: in vivo, read-out: Cmin
[24] = AUClast in B6 mouse at 25 mg/kg, po by UV-HPLC analysis; type: ADME, organism-based; design: dose 25 mg/kg, time 0 - last, route oral; details: in vivo
[25] = Metabolic stability in human liver microsomes assessed as compound remaining at 5 uM measured after 2 hrs in presence of NADPH-regenerating system by LC-UV/MS analysis; type: ADME; details: read-out: Stability
[26] = Terminal half life in B6 mouse at 200 mg/kg, po by UV-HPLC analysis; type: ADME, organism-based; details: in vivo, read-out: beta t1/2 (converted)
[27] = AUClast in B6 mouse at 200 mg/kg, po by UV-HPLC analysis; type: ADME, organism-based; design: dose 200 mg/kg, time 0 - last, route oral; details: in vivo

Chain of Cyclin-dependent kinase 1 (Homo sapiens) (P06493 whole entry, looked up): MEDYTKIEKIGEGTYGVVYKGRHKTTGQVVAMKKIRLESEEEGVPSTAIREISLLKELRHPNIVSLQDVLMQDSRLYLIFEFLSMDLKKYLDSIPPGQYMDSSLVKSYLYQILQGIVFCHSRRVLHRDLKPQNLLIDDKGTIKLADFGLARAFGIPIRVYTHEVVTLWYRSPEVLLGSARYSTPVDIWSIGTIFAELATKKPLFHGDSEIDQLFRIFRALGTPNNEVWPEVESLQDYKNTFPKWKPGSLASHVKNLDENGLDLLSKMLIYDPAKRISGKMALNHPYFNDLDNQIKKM
Chain of Vascular endothelial growth factor receptor 2 (Homo sapiens), P35968 [E990V] (P35968 whole entry E990V): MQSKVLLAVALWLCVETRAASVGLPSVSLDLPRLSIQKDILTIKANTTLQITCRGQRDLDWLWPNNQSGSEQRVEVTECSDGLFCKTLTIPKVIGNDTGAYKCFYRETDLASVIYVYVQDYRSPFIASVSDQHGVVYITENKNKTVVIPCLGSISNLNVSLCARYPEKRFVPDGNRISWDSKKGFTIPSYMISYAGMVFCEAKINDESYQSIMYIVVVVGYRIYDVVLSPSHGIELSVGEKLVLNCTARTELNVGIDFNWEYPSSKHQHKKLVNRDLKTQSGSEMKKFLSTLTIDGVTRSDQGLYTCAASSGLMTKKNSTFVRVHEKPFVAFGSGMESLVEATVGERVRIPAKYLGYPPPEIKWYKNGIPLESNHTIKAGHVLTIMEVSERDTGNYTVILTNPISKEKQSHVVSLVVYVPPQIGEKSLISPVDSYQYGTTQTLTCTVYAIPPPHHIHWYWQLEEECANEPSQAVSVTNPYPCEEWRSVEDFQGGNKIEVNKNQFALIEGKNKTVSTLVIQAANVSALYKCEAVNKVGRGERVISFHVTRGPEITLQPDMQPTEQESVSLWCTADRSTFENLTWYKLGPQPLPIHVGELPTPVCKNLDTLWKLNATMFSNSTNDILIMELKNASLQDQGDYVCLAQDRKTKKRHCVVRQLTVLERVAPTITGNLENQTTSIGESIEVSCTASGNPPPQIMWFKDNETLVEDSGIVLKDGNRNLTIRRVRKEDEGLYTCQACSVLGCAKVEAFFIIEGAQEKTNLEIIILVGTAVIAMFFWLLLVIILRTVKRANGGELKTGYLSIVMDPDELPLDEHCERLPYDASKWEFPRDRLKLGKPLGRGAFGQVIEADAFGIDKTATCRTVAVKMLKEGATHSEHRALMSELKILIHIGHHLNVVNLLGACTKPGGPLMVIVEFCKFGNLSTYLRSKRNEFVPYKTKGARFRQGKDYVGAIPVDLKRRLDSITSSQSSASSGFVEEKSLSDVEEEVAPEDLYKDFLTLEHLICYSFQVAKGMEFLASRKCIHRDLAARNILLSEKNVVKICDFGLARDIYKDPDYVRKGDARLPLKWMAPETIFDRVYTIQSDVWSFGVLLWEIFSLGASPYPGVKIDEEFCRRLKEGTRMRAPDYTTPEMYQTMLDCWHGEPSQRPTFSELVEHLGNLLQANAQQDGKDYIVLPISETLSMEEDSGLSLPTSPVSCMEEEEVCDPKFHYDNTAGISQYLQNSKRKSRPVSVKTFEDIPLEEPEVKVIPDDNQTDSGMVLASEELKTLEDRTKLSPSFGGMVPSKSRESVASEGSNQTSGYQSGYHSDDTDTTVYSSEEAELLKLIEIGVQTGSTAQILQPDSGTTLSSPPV
Chain of Focal adhesion kinase 1 (Homo sapiens), Q05397 [P410T] (Q05397 whole entry P410T): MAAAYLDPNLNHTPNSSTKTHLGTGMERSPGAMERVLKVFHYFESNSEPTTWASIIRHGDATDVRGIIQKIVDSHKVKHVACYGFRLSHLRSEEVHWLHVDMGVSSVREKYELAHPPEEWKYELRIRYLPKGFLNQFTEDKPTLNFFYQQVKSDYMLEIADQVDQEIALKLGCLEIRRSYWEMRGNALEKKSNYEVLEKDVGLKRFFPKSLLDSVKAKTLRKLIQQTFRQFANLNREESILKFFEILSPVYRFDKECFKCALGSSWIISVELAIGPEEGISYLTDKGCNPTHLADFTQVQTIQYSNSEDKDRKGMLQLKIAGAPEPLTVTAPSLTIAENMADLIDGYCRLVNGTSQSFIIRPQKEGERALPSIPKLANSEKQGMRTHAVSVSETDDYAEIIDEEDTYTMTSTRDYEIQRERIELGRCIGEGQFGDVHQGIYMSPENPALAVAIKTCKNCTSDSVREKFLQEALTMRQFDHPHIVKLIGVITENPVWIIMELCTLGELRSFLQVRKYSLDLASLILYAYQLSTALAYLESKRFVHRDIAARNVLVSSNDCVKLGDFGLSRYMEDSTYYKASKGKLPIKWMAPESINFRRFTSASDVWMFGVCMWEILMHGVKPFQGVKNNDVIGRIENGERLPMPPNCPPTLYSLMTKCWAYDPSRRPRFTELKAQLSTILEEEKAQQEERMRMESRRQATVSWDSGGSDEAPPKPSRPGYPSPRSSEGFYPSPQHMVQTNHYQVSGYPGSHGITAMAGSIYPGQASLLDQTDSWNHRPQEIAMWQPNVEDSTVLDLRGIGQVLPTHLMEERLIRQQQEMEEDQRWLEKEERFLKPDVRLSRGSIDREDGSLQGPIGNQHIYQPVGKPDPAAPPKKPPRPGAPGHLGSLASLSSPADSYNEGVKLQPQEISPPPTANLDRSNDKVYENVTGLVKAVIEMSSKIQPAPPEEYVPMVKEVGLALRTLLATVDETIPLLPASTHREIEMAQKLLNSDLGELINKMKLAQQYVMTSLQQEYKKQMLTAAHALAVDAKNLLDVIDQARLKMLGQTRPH

| Compound | half-life [1] [h] | half-life [2] [h] | also measured |
| --- | --- | --- | --- |
| O=C(c1cccc(NC(=O)C2C[C@H]2c2ccccc2)c1)c1ccc2c(/C=C/c3ccccn3)n[nH]c2c1 (mixture of isomers) | 0.5 | 3.1 | inhibition [3]: 48% |
| Fc1cccc(/C=C/c2n[nH]c3cc(-c4ccncc4)ccc23)c1F |  |  | inhibition [4]: 7 to 31% |
| CCn1nc(C)cc1C(=O)Nc1cccc(C(=O)c2ccc3c(/C=C/c4ccccn4)n[nH]c3c2)c1 | 3.4 | 2.9 | Activity [5]: >=25 - 75% |
| C#CCNC(=O)c1cccc(C(=O)c2ccc3c(/C=C/c4ccccn4)n[nH]c3c2)c1 |  |  | inhibition [6]: 5% |
| O=C(NCc1cccc(F)c1)c1ccccc1Sc1ccc2c(/C=C/c3ccccn3)n[nH]c2c1 |  |  | beta t1/2 ([7]; mouse, BLD = below limit of detection): Bld; Cmax [8]: Bld |
| CC(=O)c1cccc(C(=O)Nc2cccc(N(C)c3ccc4c(/C=C/c5ccc6c(c5)OCO6)n[nH]c4c3)c2)c1 |  |  | Activity [9]: 36 - 37% |
| CCn1nc(C)cc1C(=O)Nc1cccc(Oc2ccc3c(/C=C/c4c[nH]cn4)n[nH]c3c2)c1 |  |  | half-life [7]: 2.1 h; Cmax [10]: 179 ng/mL |
| O=C(Nc1cccc(Oc2ccc3c(/C=C/c4ccc(Cl)cc4)n[nH]c3c2)c1)c1ccccc1 |  |  | Activity [9]: 25 - 75% |
| O=C(Nc1ccccc1)c1ccccc1Sc1ccc2c(/C=C/c3ccccn3)n[nH]c2c1 | 3 | 1.2 |  |
| Cc1cc(NC(=O)c2ccc3c(-c4nc5ccccc5[nH]4)n[nH]c3c2)n[nH]1 |  |  | inhibition [11]: 38.6% |
| O=C(NCc1ccccc1F)c1ccccc1Sc1ccc2c(/C=C/c3ccccn3)n[nH]c2c1 | 3.6 | 3.8 |  |
| O=C(c1cccc(NC(=O)c2cccc3[nH]ccc23)c1)c1ccc2c(/C=C/c3ccccn3)n[nH]c2c1 | 1.5 | 2.8 |  |
| C=CCONC(=O)c1ccccc1Sc1ccc2c(/C=C/c3ccccn3)n[nH]c2c1 | 4.5 | 1.3 |  |
| CCn1nc(C)cc1C(=O)Nc1cccc(Oc2ccc3c(/C=C/c4ccccn4)n[nH]c3c2)c1 | 39.3 | 5.3 | half-life [7]: 1.9 h; half-life [12]: 3.1 h |
| O=C(c1cccc(NC(=O)c2ccccn2)c1)c1ccc2c(/C=C/c3ccccn3)n[nH]c2c1 | 0.9 | 2.1 |  |
| CC(C)NC(=O)c1ccccc1Sc1ccc2c(/C=C/c3ccccn3)n[nH]c2c1 | 0.8 | 0.8 |  |
| CCCNC(=O)c1ccccc1Sc1ccc2c(/C=C/c3ccccn3)n[nH]c2c1 | 0.9 | 1.4 |  |
| O=C(Nc1cccc(C(=O)c2ccc3c(/C=C/c4ccccc4)n[nH]c3c2)c1)c1ccncc1 | 1.2 | 1.6 |  |
| O=C(NC1CCC1)c1ccccc1Sc1ccc2c(/C=C/c3ccccn3)n[nH]c2c1 | 4.9 | 3.2 |  |
| CCn1nc(C)cc1C(=O)Nc1cccc(C(=O)c2ccc3c(/C=C/c4ccccn4)n[nH]c3c2)c1.Cl |  |  | half-life [13]: 1.5 h; half-life [7]: 1.6 h; half-life [14]: 2.4 h; AUC(0-t) [15]: 0.061 µg·h/mL; Cmax [16]: 12 ng/mL; concentration at 7 h [17]: 122 ng/mL; concentration at 7 h [18]: 1880 ng/mL; half-life [12]: 3.1 h |
| C#CCNC(=O)c1ccccc1Sc1ccc2c(/C=C/c3ccccn3)n[nH]c2c1 | 0.9 | 1.4 |  |
| C/C=C/C(=O)Nc1cccc(C(=O)c2ccc3c(/C=C/c4ccccn4)n[nH]c3c2)c1 | 2.6 | 1.7 | Activity [5]: 25 - 75% |
| O=C(Nc1cccc(Oc2ccc3c(/C=C/c4ccccc4)n[nH]c3c2)c1)c1ccccc1 |  |  | Cmax [19]: 198 ng/mL |
| O=C(Nc1cccc(O)c1)c1ccc2c(-c3nc4ccccc4[nH]3)n[nH]c2c1 |  |  | inhibition [11]: 57.7% |
| O=C(c1ccc2c(-c3nc4ccccc4[nH]3)n[nH]c2c1)N1CCC(CCO)CC1 |  |  | inhibition [11]: 33% |

| Compound | half-life [1] [h] | half-life [2] [h] | also measured |
| --- | --- | --- | --- |
| CCn1nc(C)cc1C(=O)Nc1cc(Nc2ccc3c(/C=C/c4ccccn4)n[nH]c3c2)c(F)cc1C.Cl |  |  | AUC(0-t) [20]: 276 µg·h/mL |
| Cc1cc(C(=O)Nc2cc(C(=O)c3ccc4c(/C=C/c5ccccn5)n[nH]c4c3)c(C)cc2C)n(C)n1 |  |  | Activity [5]: <=25% |
| COc1cc(-c2ccc3c(-c4cc5ccccc5[nH]4)n[nH]c3c2)ccc1O |  |  | inhibition [21]: 26% |
| Cc1cc(C(=O)Nc2cccc(Oc3ccc4c(/C=C/c5ccccn5)n[nH]c4c3)c2)nn1C | 1 | 1.7 |  |
| CCONC(=O)c1ccccc1Sc1ccc2c(/C=C/c3ccccn3)n[nH]c2c1 |  | 4.1 | half-life [7]: 2 h; Activity [5]: >=25 - 75%; half-life [22]: 2 h |
| Cn1nc(C(C)(C)C)cc1C(=O)Nc1cccc(C(=O)c2ccc3c(/C=C/c4ccccn4)n[nH]c3c2)c1 | 1.9 | 3.2 |  |
| O=C(NC1CC1)c1ccccc1Sc1ccc2c(/C=C/c3ccccn3)n[nH]c2c1 | 0.7 | 1 |  |
| CC(=O)c1ccc(C(=O)Nc2cccc(C(=O)c3ccc4c(/C=C/c5ccccn5)n[nH]c4c3)c2)s1 | 1.6 | 1.6 |  |
| Cc1cc(C(=O)Nc2cccc(C(=O)c3ccc4c(/C=C/c5ccccn5)n[nH]c4c3)c2)n[nH]1 | 0.7 | 0.3 |  |
| O=C(Nc1nccs1)c1ccccc1Sc1ccc2c(/C=C/c3ccccn3)n[nH]c2c1 | 1.2 | 1.2 |  |
| Cn1cccc1C(=O)NNC(=O)c1ccccc1Sc1ccc2c(/C=C/c3ccccn3)n[nH]c2c1 | 0.9 | 1.8 |  |
| C=C(C)CNC(=O)c1ccccc1Sc1ccc2c(/C=C/c3ccccn3)n[nH]c2c1 |  | 1.5 | half-life [7]: 14.6 h |
| O=C(Nc1cccc(C(=O)c2ccc3c(-c4nc5ccccc5[nH]4)n[nH]c3c2)c1)c1ccccc1 | 3 | 3 |  |
| CCNC(=O)c1ccccc1Sc1ccc2c(/C=C/c3ccccn3)n[nH]c2c1 | 0.9 | 3.2 |  |
| O=C(Nc1cccc(C(=O)c2ccc3c(/C=C/c4ccccn4)n[nH]c3c2)c1)c1ccccc1 | 2 | 5 |  |
| CCn1nc(C)cc1C(=O)Nc1cccc(Oc2ccc3c(/C=C/c4ccccn4)n[nH]c3c2)c1.Cl |  |  | half-life [7]: 21 h |
| Cc1cc(C(=O)Nc2cc(Nc3ccc4c(/C=C/c5ccccn5)n[nH]c4c3)ccc2F)n(C)n1.Cl |  |  | Cmax [10]: 50000 ng/mL; concentration at 7 h [17]: 1900 ng/mL; concentration at 7 h [18]: 4140 ng/mL; concentration at 7 h [23]: 12700 ng/mL; AUC(0-t) [24]: 327 µg·h/mL |
| O=C(Nc1cccc(C(=O)c2ccc3c(/C=N/n4cccc4)n[nH]c3c2)c1)c1ccccc1 | 3 | 2 |  |
| O=C(Nc1cccc(C(=O)c2ccc3c(/C=C/c4ccccn4)n[nH]c3c2)c1)c1ccncc1 | 1.1 | 4.7 | remaining at 2 h, 5 µM [25]: 50% |
| O=C(Nc1cccc(Cl)c1)c1ccccc1Sc1ccc2c(/C=C/c3ccccn3)n[nH]c2c1 | 0.9 | 1.6 |  |
| Cc1cc(C(=O)Nc2cccc(C(=O)c3ccc4c(/C=C/c5ccccn5)n[nH]c4c3)c2)n(C)n1.Cl |  |  | half-life [26]: 9.4 h; AUC(0-t) [27]: 156 µg·h/mL; concentration at 7 h [23]: 12100 ng/mL |
| O=C(c1cccc(NC(=O)c2ccccn2)c1)c1ccc2c(/C=C/c3ccccc3)n[nH]c2c1 | 2.2 | 2.2 |  |
| O=C(NCC(F)(F)F)c1ccccc1Sc1ccc2c(/C=C/c3ccccn3)n[nH]c2c1 | 0.7 | 2.4 |  |
| O=C(NCCN1CCOCC1)c1ccc2c(-c3nc4ccccc4[nH]3)n[nH]c2c1 |  |  | inhibition [11]: 21.7% |
